# Reference: patent US6737383B1, “Herbicidal oxadiazolidines” (priority 1999, dated 2004)
# Experiments:
# rice = assay: Test B flood test rice; assay type: in vivo, Oryza sativa; details: for Plant response rating, Rice (0 to 10 scale, 0 is no effect, 10 is complete control) / Rice plant response rating (0 to 10 scale, 0 is no effect, 10 is complete control): visual evaluation after twelve to sixteen days; for Rice plant response rating (0 to 10 scale, 0 is no effect, 10 is complete control): under heading Pre-emergence
# How it was run: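 Each value is a visual injury score relative to controls, with 10 meaning complete control and 0 no effect. Evaluation took place twelve to sixteen days after the 2-leaf-stage plants were treated and kept in the greenhouse.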
# wheat = assay: Test B pre/postemergence wheat; assay type: in vivo, Triticum aestivum
# How it was run: (§1)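 Response is a visual 0-to-10 score relative to untreated plants, where 0 means no effect and 10 means complete control, taken twelve to sixteen days after application. Treatments went onto soil at planting and onto foliage of 1- to 4-leaf plants, using a surfactant-containing non-phytotoxic solvent.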
# crabgrass = assay: Test B pre/postemergence crabgrass; assay type: in vivo, Digitaria sanguinalis
# How it was run: as §1
# wild oat = assay: Test B pre/postemergence wild oat; assay type: in vivo, Avena fatua
# How it was run: as §1
# [1] = Postemergence, Rate 62 g/ha, scale 0 to 10, 0 is no effect, 10 is complete control
# [2] = Postemergence, Rate 250 g/ha, scale 0 to 10, 0 no effect, 10 complete control
# [3] = Preemergence, Rate 62 g/ha, scale 0 to 10 (0 no effect, 10 complete control)
# [4] = Preemergence, Rate 125 g/ha, scale 0 to 10 (0 no effect, 10 complete control)
# [5] = Preemergence, Rate 250 g/ha, scale of 0 to 10 where 0 is no effect and 10 is complete control
# [6] = Preemergence, Rate 500 g/ha, scale 0 (no effect) to 10 (complete control)
# [7] = Rate 125 g/ha, Postemergence, scale 0 to 10, 0 no effect, 10 complete control
# [8] = Rate 500 g/ha, Postemergence, scale 0 to 10, 0 no effect, 10 complete control
# [9] = Rate 62 g/ha, headed Pre-emergence (flood test species), scale 0 to 10 (0 no effect, 10 complete control)
# [10] = Rate 125 g/ha, Pre-emergence, flood test species, scale 0 to 10 where 0 is no effect and 10 is complete control
# [11] = Rate 250 g/ha, Pre-emergence, flood-test species, scale 0 to 10, 0 is no effect, 10 is complete control
# [12] = Rate 500 g/ha, headed Pre-emergence (flood test species), scale 0 to 10 (0 no effect, 10 complete control)
# [13] = Preemergence, Rate 62 g/ha, scale of 0 to 10 where 0 is no effect and 10 is complete control
# [14] = Preemergence, Rate 250 g/ha, scale 0 to 10, 0 is no effect, 10 is complete control
# [15] = Preemergence, Rate 500 g/ha, scale of 0 to 10 where 0 is no effect and 10 is complete control
# [16] = Rate 62 g/ha, Postemergence, scale of 0 to 10 where 0 is no effect and 10 is complete control
# [17] = Rate 125 g/ha, Postemergence, scale 0 to 10
# [18] = Preemergence, Rate 125 g/ha, 0 is no effect, 10 is complete control
# [19] = Rate 500 g/ha, Postemergence, scale 0 to 10
# [20] = Rate 62 g/ha, flood test species, Pre-emergence
# [21] = Rate 125 g/ha, flood test species
# [22] = Rate 250 g/ha, Pre-emergence (flood test species), scale 0 to 10, 0 is no effect, 10 is complete control
# [23] = Rate 500 g/ha, Pre-emergence section of Table B, 0 to 10 scale (0 no effect, 10 complete control)
# [24] = Postemergence, Rate 125 g/ha, scale of 0 to 10 where 0 is no effect and 10 is complete control
# [25] = Preemergence, Rate 125 g/ha, scale of 0 to 10 where 0 is no effect and 10 is complete control
# [26] = Preemergence, Rate 250 g/ha, scale 0 to 10 (0 no effect, 10 complete control)
# [27] = Rate 500 g/ha, Postemergence, scale 0 to 10, 0 is no effect, 10 is complete control
# [28] = Postemergence, Rate 500 g/ha, scale of 0 to 10 where 0 is no effect and 10 is complete control
# [29] = Rate 250 g/ha, Postemergence, scale of 0 to 10 where 0 is no effect and 10 is complete control
# [30] = Preemergence, Rate 500 g/ha, scale 0 to 10 (0 no effect, 10 complete control)
smiles,measurement,setting,value
COc1cccc(C)c1-n1c(=O)on(C(=O)N(c2ccc(F)cc2F)C(C)C)c1=O [Compound 74],Rice plant response rating,rice; [1],0
same,Rice plant response rating,"rice; Rate 125 g/ha, Postemergence section (flood test species), scale 0 to 10, 0 no effect, 10 complete control",0
same,Rice plant response rating,"rice; Rate 500 g/ha, listed under Postemergence (flood test species), scale 0 to 10, 0 no effect, 10 complete control",0
same,Rice plant response rating,"rice; flood test, listed under Postemergence, Rate 250 g/ha, scale 0 to 10, 0 no effect, 10 complete control",0
same,Wheat plant response rating,wheat; [1],0
same,Wheat plant response rating,wheat; [2],0
same,Wheat plant response rating,wheat; [3],0
same,"Plant response rating, Wheat",wheat; [4],0
same,"Plant response rating, Wheat",wheat; [5],0
same,Wheat plant response rating,wheat; [6],0
same,Wheat plant response rating,wheat; [7],0
same,Wheat plant response rating,wheat; [8],3
same,Crabgrass plant response rating,crabgrass; [1],0
same,Crabgrass plant response rating,crabgrass; [2],4
same,Crabgrass plant response rating,crabgrass; [3],2
same,"Plant response rating, Crabgrass",crabgrass; [4],2
same,"Plant response rating, Crabgrass",crabgrass; [5],5
same,Crabgrass plant response rating,crabgrass; [6],8
same,Crabgrass plant response rating,crabgrass; [7],2
same,Crabgrass plant response rating,crabgrass; [8],7
same,Wild oats plant response rating,wild oat; [1],0
same,Wild oats plant response rating,wild oat; [2],0
same,Wild oats plant response rating,wild oat; [3],0
same,"Plant response rating, Wild oats",wild oat; [4],0
same,"Plant response rating, Wild oats",wild oat; [5],0
same,Wild oats plant response rating,wild oat; [6],0
same,Wild oats plant response rating,wild oat; [7],0
same,Wild oats plant response rating,wild oat; [8],2
CSc1ccc(N(C(=O)n2oc(=O)n(-c3ccccc3C)c2=O)C(C)C)cc1 [Compound 205],Rice plant response rating,rice; [9],0
same,Rice plant response rating,rice; [10],0
same,Rice plant response rating,rice; [11],0
same,"Plant response rating, Rice",rice; [12],0
same,Wheat plant response rating,wheat; [13],0
same,Wheat plant response rating,wheat; [14],0
same,"Plant response rating, Wheat",wheat; [15],0
same,Wheat plant response rating,wheat; [16],0
same,Wheat plant response rating,wheat; [17],0
same,"Plant response rating (0 to 10; 0 is no effect, 10 is complete control), Wheat","wheat; Rate 250 g/ha, Postemergence",0
same,Crabgrass plant response rating,crabgrass; [13],0
same,Crabgrass plant response rating (0 to 10 scale),crabgrass; [18],0
same,Crabgrass plant response rating,crabgrass; [14],1
same,"Plant response rating, Crabgrass",crabgrass; [15],8
same,Crabgrass plant response rating,crabgrass; [16],0
same,Crabgrass plant response rating,crabgrass; [17],0
same,"Plant response rating (0 to 10; 0 is no effect, 10 is complete control), Crabgrass","crabgrass; Rate 250 g/ha, Postemergence",1
same,Crabgrass plant response rating,crabgrass; [19],1
same,Wild oats plant response rating,wild oat; [13],0
same,Wild oats plant response rating,wild oat; [14],0
same,"Plant response rating, Wild oats",wild oat; [15],0
same,Wild oats plant response rating,wild oat; [16],0
same,Wild oats plant response rating,wild oat; [17],0
same,"Plant response rating (0 to 10; 0 is no effect, 10 is complete control), Wild oats","wild oat; Rate 250 g/ha, Postemergence",0
CC(C)N(C(=O)n1oc(=O)n(CC2CCCCO2)c1=O)c1ccccc1 (stereo not drawn) [Compound 659],"Plant response rating, Rice (0 to 10 scale, 0 is no effect, 10 is complete control)",rice; [20],0
same,"Rice plant response rating (0 to 10 scale, 0 is no effect, 10 is complete control)",rice; [21],0
same,Rice plant response rating,rice; [22],0
same,Rice plant response rating,rice; [23],0
same,"Plant response rating, Wheat",wheat; [1],0
same,Wheat plant response rating,wheat; [24],0
same,Wheat plant response rating,wheat; [13],0
same,Wheat plant response rating,wheat; [25],0
same,"Plant response rating, Wheat",wheat; [26],2
same,"Plant response rating, Wheat",wheat; [15],7
same,Wheat plant response rating,wheat; [27],5
same,"Plant response rating, Crabgrass",crabgrass; [1],1
same,Crabgrass plant response rating,crabgrass; [24],6
same,Crabgrass plant response rating,"crabgrass; Postemergence, Rate 250 g/ha, scale of 0 to 10, 0 is no effect, 10 is complete control",6
same,Crabgrass plant response rating,crabgrass; [13],8
same,Crabgrass plant response rating,crabgrass; [25],8
same,"Plant response rating, Crabgrass",crabgrass; [15],10
same,Crabgrass plant response rating,crabgrass; [27],8
same,"Plant response rating, Wild oats",wild oat; [1],0
same,Wild oats plant response rating,wild oat; [24],0
same,Wild oats plant response rating,wild oat; [13],0
same,Wild oats plant response rating,wild oat; [25],0
same,"Plant response rating, Wild oats",wild oat; [26],3
same,"Plant response rating, Wild oats",wild oat; [15],9
same,Wild oats plant response rating,wild oat; [27],3
CC(C)N(C(=O)n1oc(=O)n(CC2CCC2)c1=O)c1ccccc1 [Compound 580],"Plant response rating, Rice (0 to 10 scale, 0 is no effect, 10 is complete control)",rice; [20],0
same,"Rice plant response rating (0 to 10 scale, 0 is no effect, 10 is complete control)",rice; [21],0
same,Rice plant response rating,rice; [22],0
same,Rice plant response rating,rice; [23],0
same,"Plant response rating, Wheat",wheat; [24],0
same,"Plant response rating, Wheat",wheat; [28],3
same,Wheat plant response rating,wheat; [3],0
same,Wheat plant response rating,wheat; [25],0
same,Wheat plant response rating (0 to 10 scale),"wheat; Preemergence, Rate 250 g/ha",2
same,Wheat plant response rating,wheat; [15],5
same,"Plant response rating, Wheat",wheat; [29],0
same,Crabgrass plant response rating,"crabgrass; Postemergence, Rate 62 g/ha, scale of 0 to 10, 0 is no effect, 10 is complete control",0
same,"Plant response rating, Crabgrass",crabgrass; [24],3
same,Crabgrass plant response rating,crabgrass; [3],6
same,Crabgrass plant response rating,crabgrass; [25],6
same,Crabgrass plant response rating (0 to 10 scale),"crabgrass; Preemergence, Rate 250 g/ha",9
same,Crabgrass plant response rating,crabgrass; [15],9
same,"Plant response rating, Crabgrass",crabgrass; [29],9
same,"Plant response rating, Wild oats",wild oat; [24],0
same,"Plant response rating, Wild oats",wild oat; [28],7
same,Wild oats plant response rating,wild oat; [3],0
same,Wild oats plant response rating,wild oat; [25],0
same,Wild oats plant response rating (0 to 10 scale),"wild oat; Preemergence, Rate 250 g/ha",2
same,Wild oats plant response rating,wild oat; [15],5
same,"Plant response rating, Wild oats",wild oat; [29],3
Cc1ccccc1-n1c(=O)on(C(=O)N(c2ccc(Cl)cc2Cl)C(C)C)c1=O [Compound 185],Rice plant response rating,rice; [9],0
same,Rice plant response rating,rice; [10],0
same,Rice plant response rating,rice; [11],0
same,"Plant response rating, Rice",rice; [12],0
same,Wheat plant response rating,wheat; [13],0
same,Wheat plant response rating,wheat; [14],0
same,Wheat plant response rating,wheat; [30],0
same,Wheat plant response rating,wheat; [17],0
same,"Plant response rating (0 to 10; 0 is no effect, 10 is complete control), Wheat","wheat; Rate 250 g/ha, Postemergence",0
same,Crabgrass plant response rating,crabgrass; [13],2
same,Crabgrass plant response rating (0 to 10 scale),crabgrass; [18],6
same,Crabgrass plant response rating,crabgrass; [14],7
same,Crabgrass plant response rating,crabgrass; [30],9
same,Crabgrass plant response rating,crabgrass; [16],0
same,Crabgrass plant response rating,crabgrass; [17],1
same,Crabgrass plant response rating,crabgrass; [19],1
same,Wild oats plant response rating,wild oat; [13],0
same,Wild oats plant response rating,wild oat; [14],0
same,Wild oats plant response rating,wild oat; [30],0
same,Wild oats plant response rating,wild oat; [17],0
same,"Plant response rating (0 to 10; 0 is no effect, 10 is complete control), Wild oats","wild oat; Rate 250 g/ha, Postemergence",0
